What was measured:
[1] = Molar extinction coefficient; format: physicochemical; settings: 592 nm
[2] = test system: S. aureus (Gram-positive); assay: Gram staining, bright field microscopy; format: cell-based, Staphylococcus aureus; settings: 1 mM Crystal Violet-TCO 3 min, iodine, 95% ethanol, Safranin counterstain
Protocol: Bacterial cells were smeared onto microscopic slides, and stained with standard crystal violet (20 mM) or CV-TCO (1 mM) in 20% ethanol solution containing 8 mg/ml ammonium oxalate for 3 min. After washing with deionized water, slides were treated with Gram Iodine (BD Biosciences), decolorized with 95% ethanol solution, and counterstained with Gram safranin (BD Biosciences). Slides were observed using a bright field light microscope.
To test the efficacy of Crystal Violet-TCO as a staining agent for Gram-positive bacteria, three representative samples were prepared: Staphylococcus aureus (S. aureus; Gram-positive), Escherichia coli (E. coli; Gram-negative), and the mixture of both bacterial species. Bacterial smears on glass slides were stained with a solution of Crystal Violet-TCO (1 mM) or Crystal Violet for 3 min., followed by treatment with Gram's iodine solution for one minute, decolorization with 95% ethanol, and counterstaining with red Safranin solution.

[3] = test system: S. aureus (Gram-positive); assay: Absorbance at 595 nm / UV-visible spectrometry of stained bacteria; format: cell-based, Staphylococcus aureus; settings: E. coli (G−) as comparison
Protocol: (§1) Bacterial cells in media were first washed with phosphate buffered saline solution (PBS). For μNMR measurements, absorbance measurements, confocal microscopy, and transmission electron microscopy (TEM), the bacteria (10^8 in 100 μl) were stained with 200 μM CV-TCO in 20% ethanol solution containing 8 mg/ml ammonium oxalate for 5 min. at room temperature, and washed with PBS. Then the bacteria were treated with Gram Iodine solution for 1 min. and decolorized with 95% ethanol solution. For μNMR and confocal microscopy, bacteria were incubated with 50 μg/ml MFNP-Tz in PBS for 20 min. at room temperature, and washed twice with PBS. For confocal microscopy, labeled bacteria were mounted on microscopic slides with Vectashield containing propium iodide (Vector Laboratories), and imaged. For TEM, the stained and decolorized bacteria were incubated with 50 μg/ml GNP-Tz in PBS for 1 h, washed with PBS, and dehydrated with graded ethanol series before applying onto a carbon grid (Ted Pella).

[4] = test system: Gram-positive species; assay: μNMR cellular relaxivity of bacteria stained with Crystal Violet-TCO and labeled with MFNP-Tz; format: cell-based; settings: panel of bacterial species
Protocol: Bacterial cells in media were first washed with phosphate buffered saline solution (PBS). For μNMR measurements, absorbance measurements, confocal microscopy, and transmission electron microscopy (TEM), the bacteria (10^8 in 100 μl) were stained with 200 μM CV-TCO in 20% ethanol solution containing 8 mg/ml ammonium oxalate for 5 min. at room temperature, and washed with PBS. Then the bacteria were treated with Gram Iodine solution for 1 min. and decolorized with 95% ethanol solution. For μNMR and confocal microscopy, bacteria were incubated with 50 μg/ml MFNP-Tz in PBS for 20 min. at room temperature, and washed twice with PBS. […]
To test whether bacteria labelled with Crystal Violet-TCO could be magnetically labeled via cycloaddition to the TCO group, bacteria stained with Crystal Violet-TCO were incubated with magnetofluorescent nanoparticles modified with tetrazine (MFNP-Tz). […] The T2 relaxation values of samples were measured using a miniaturized μNMR system. For comparative analyses, the absorption (at 595 nm) of the same samples was also measured. Cellular relaxivity (r2) was obtained by normalizing the measured 1/T2 values with bacterial concentration, and the r2 differences (Δr2) between targeted and control samples were calculated. […]

[5] = test system: S. aureus; assay: μNMR sensitivity of the assay, serially diluted bacterial samples; format: cell-based, Staphylococcus aureus; settings: Crystal Violet-TCO and MFNP-Tz
Protocol: as §1
To measure the sensitivity of the assay, measurements with serially diluted bacterial samples were performed and established a detection limit of about 4,000 bacteria with the experimental set-up used. […] Limit of detection was ˜4000 CFU.

[6] = test system: S. aureus; assay: Confocal microscopy (MFNP-Tz) and TEM (GNP-Tz) of Crystal Violet-TCO stained bacteria; format: cell-based, Staphylococcus aureus
Protocol: as §1
The left, middle, and right panels show images of the red channel, green channel, and a merged image of the red and green channels, respectively (Red: propidium iodide for nuclear staining; Green: MNFP-Tz staining; Scale bar=10 μm).
Gold nanoparticles were used instead of magnetic nanoparticles to obtain higher contrast.

[7] = test system: E. coli (Gram-negative); assay: Confocal microscopy control experiment; format: cell-based, Escherichia coli; settings: Crystal Violet-TCO stained, decolorized
Protocol: as §1
The green channel (left) indicates MNFP-Tz, and the red channel (right) indicates propidium iodide. (Scale bar=5 μm).

[8] = test system: Gram-positive and Gram-negative bacteria; assay: μNMR detection before and after decolorization; format: cell-based
Protocol: as §1
The magnetic labeling detection strategy using Crystal Violet-TCO can be applied to detect both Gram-positive and Gram-negative bacteria. A modified protocol was adopted in which staining was performed without the decolorization process, which results in labeling both Gram-positive and Grain-negative bacteria, since the Gram-negative bacteria also retain the Crystal Violet-TCO. […]

[9] = target: Gram-positive bacteria; assay: Competitive inhibition of vancomycin-TCO labeling by unmodified vancomycin; settings: 1-200 μM unmodified vancomycin added to 20 μM vancomycin-TCO; fluorescence and magnetic resonance; all Gram-positive bacteria; read-out: inhibition binding constant (Ki)
Protocol: For two-step labeling, the washed cells were incubated with 1-20 μM vancomycin TCO in PBS-F at room temperature for 30 min. For competition studies, 1-200 μM unmodified vancomycin was added to 20 μM vancomycin-TCO.
To further characterize the binding properties of vancomycin-TCO, competitive inhibition studies were performed in which unmodified vancomycin was introduced together with vancomycin-TCO, before reacting with MFNP-Tz.
FIGS. 8A and 8B show the results of competition studies of vancomycin-TCO using both fluorescence (FIG. 8A) and magnetic resonance (FIG. 8B) measurements. […] The inhibition binding constant (Ki) was about 6 μM for all Gram-positive bacteria, a value which was similar to that of vancomycin-TCO.

[10] = test system: Nocardia Farcinica; assay: Bioorthogonal labeling with Trehalose-TCO and Oregon Green-Tz, cell fluorescence microscopy; format: cell-based
Protocol: Nocardia Farcinica bacteria (ATCC 3308) at an OD600 of 0.8 in growth medium (0.1 mL) was added 100 μM Trehalose-TCO, Trehalose-fluorescein or DMSO (as a control) in growth media (1% DMSO). Bacteria were incubated at 37° C. with shaking for 16 h. Bacteria were then centrifuged (7 min., 8000 rpm) and washed (2×100 μL PBS solution containing 2% fetal bovine serum (FBS) and 1 mg/mL bovine serum albumin (BSA) PBS-F).
Bacteria treated with Trehalose-TCO were incubated with 50 μg/mL MFNP-Tz MNFP-Tz or 10 μM Oregon Green-Tz for 20 min. in PBS-F. Bacteria were then centrifuged (7 min., 8000 rpm) and washed (2×100 μL PBS-F). Bacteria were then fixed with 10% PFA in PBS (100 μL) for 20 min., centrifuged and resuspended in 10 μL PBS. 3 μL were spread out on a 96 wells plates (Nunc, Cat No 137103 (Roskilde, Denmark, pre-wet with PBS-F). Bacteria were dried out in an incubator 37 C for 30 min. then mounting media containing […] was added to samples. Imaging was done on a DeltaVision microscope (Applied Precision Instruments) at 60×.

[11] = test system: Gram-positive bacteria; assay: Fluorescence spectrometry of bacteria labeled with daptomycin-TCO and MFNP-Tz; format: cell-based; settings: daptomycin-TCO at various concentrations, then MFNP-Tz
Protocol: (§2) For two-step labeling using Daptomycin-TCO, the drug conjugates were incubated in buffer solution containing 5 mM 4-(2-hydroxyethyl)-1-piperazineethanesulfonic acid (HEPES), 5 mM CaCl2, 2% FBS, and 1 mg/ml BSA at room temperature for 30 min. After washing twice with PBS-F, bacterial cells were incubated with 50 μg/ml MFNP-Tz in PBS-F for 20 min. at room temperature.
For fluorescence spectrometry, μNMR measurements, and flow cytometry, the cells were fixed in 10% paraformaldehyde (PFA) for 30 min., and then exchanged into PBS solution. Fluorescence measurements were taken using the Safire2 microplate reader (TECAN, Mannedorf, Switzerland). Increased relative fluorescence intensity (% RFU) values were calculated as 100×(Itarget−Inon)/Inon, where Itarget and Inon are intensity values of targeted and non-targeted bacteria, respectively. Flow cytometry was performed using LSRII (BD Biosciences). All labeling experiments and measurements were performed at least 3 times to confirm the reproducibility and robustness of the method.
(§3) Daptomycin-TCO was used to magnetically label bacteria using methods similar to those described in Example 1.

[12] = test system: Gram-positive bacteria; assay: Magnetic resonance detection of bacteria labeled with daptomycin-TCO and MFNP-Tz; format: cell-based; settings: daptomycin-TCO then MFNP-Tz
Protocol: as §2
All μNMR measurements were performed using the portable NMR system recently developed for point-of-care operations as described by Issadore, et al. Lab Chip 2011, 11, 2282-87. The polarizing magnetic field was ˜0.5 T. Transverse relaxation times were measured on 1-2 μL sample volumes, using Carry-Purcell-Meiboom-Gill pulse sequences with the following parameters: echo time, 3 ms; repetition time, 4 s; number of 180° pulses per scan, 900; number of scans, 7.
as §3

In the case of `CC[N+](CCNC(=O)OC1CC/C=C/CCC1)=C1C=CC(=C(c2ccc(N(C)C)cc2)c2ccc(N(C)C)cc2)C=C1` (centres unmarked) [Crystal Violet-TCO, (E)-N-(4-(bis(4-(dimethylamino)phenyl)methylene)cyclohexa-2,5-dien-1-ylidene)-2-(((cyclooct-4-en-1-yloxy)carbonyl)amino)-N-ethylethanaminium chloride], the “molar extinction coefficient ε592” value [1] is reported as 133013 L/mol/cm, the “colour after Gram staining and decolorization” value [2] is reported as “remained purple” and the “UV absorbance of stained bacteria” value [3] is reported as “intense absorption at 595 nm”. The “cellular relaxivity of Gram-positive species” value [4] was “significantly higher cellular relaxivity values when compared to Gram-negative bacteria”, the detection limit [5] was “about 4,000 bacteria” and the Limit of detection ([5]; ΔR2) was ~4000 CFU. For the same compound, the “transmission electron microscopy observation” value ([6]; CV-TCO then GNP-Tz) was “Gold nanoparticles were found distributed throughout the bacterial surface”, the confocal microscopy observation ([6]; Crystal Violet-TCO then MFNP-Tz) was “uniform and high fluorescence signals in the bacterial cell wall” and the “confocal microscopy MFNP-Tz signal” value [7] was “absence of MFNP-Tz signal”. For the same compound, the μNMR detection ([8]; after decolorization) was “only Gram-positive species retained their signals” and the μNMR detection ([8]; before decolorization) was “both Gram-positive and negative bacteria could be magnetically labeled and detected”.
With `CN(C)c1ccc(C(=C2C=CC(=[N+](C)C)C=C2)c2ccc(N(C)C)cc2)cc1` [crystal violet, reference compound] the “molar extinction coefficient ε592” value [1] was 89146 L/mol/cm.
For `CN[C@H](CC(C)C)C(=O)N[C@H]1C(=O)N[C@@H](CC(N)=O)C(=O)N[C@H]2C(=O)N[C@H]3C(=O)N[C@H](C(=O)N[C@H](C(=O)O)c4cc(O)cc(O)c4-c4cc3ccc4O)[C@H](O)c3ccc(c(Cl)c3)Oc3cc2cc(c3O[C@@H]2O[C@H](CO)[C@@H](O)[C@H](O)[C@H]2O[C@H]2C[C@](C)(N)[C@H](O)[C@H](C)O2)Oc2ccc(cc2Cl)[C@H]1O` [vancomycin], the Ki [9] was ~6 µM.
For `C[C@]1(O[C@H]2O[C@H](CO)C(O)C(O)C2NC(=O)OC2CC/C=C/CCC2)OC(CO)[C@@H](O)C(O)C1O` (stereo partly drawn) [Trehalose-TCO, 1-deoxy-α-D-gluco-hept-2-ulopyranosyl-(2→1)-2-deoxy-2-((E)-cyclooct-4-en-1-yl carbamate)-α-D-glucopyranoside], the kinetics of incorporation ([10]; 0-16 h, subsequent labeling with Oregon Green-Tz) was “gradual increase in the extent of labeling” and the cell fluorescence ([10]; 100 μM Trehalose-TCO 16 h, then 10 μM Oregon Green-Tz) was “Bright green fluorescence of the cells is observed”.
For `CCCCCCCCCC(=O)N[C@@H](Cc1c[nH]c2ccccc12)C(=O)N[C@@H](CC(N)=O)C(=O)N[C@@H](CC(=O)O)C(=O)N[C@@H]1C(=O)NCC(=O)N[C@@H](CCCNC(=O)OC2CC/C=C/CCC2)C(=O)N[C@@H](CC(=O)O)C(=O)N[C@H](C)C(=O)N[C@@H](CC(=O)O)C(=O)NCC(=O)N[C@H](CO)C(=O)N[C@@H]([C@@H](C)CC(=O)O)C(=O)N[C@@H](CC(=O)c2ccccc2N)C(=O)O[C@@H]1C` (some centres unmarked) [daptomycin-TCO], the “increased relative fluorescence intensities” value [11] was “up to 220%” and the cellular relaxivity [12] was 1.32 s^−1[CFU/μL]^−1.

Reference: patent US10274490B2, “Magnetic labeling of bacteria” (The General Hospital Corporation, priority 2012, dated 2019)
